Legend:
Test in all cases: relative viability (nuclei count vs DMSO), 5 days (fraction); higher = more cells survive
[1] = test system: NCI-H1563
Summary of the method: (§1)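 Medians of duplicate plates are given as relative viability. That measure is the nuclei count in treated wells divided by the count in vehicle wells. Counts were taken on 4× images of lung cancer cell lines in 1536-well plates, 5 days after pin-tool dosing the day after seeding with one drug alone or a fixed anchor-drug dose plus five library-drug doses (not always all listed) in √10 steps.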

[2] = test system: NCI-H522
Summary of the method: as §1

[3] = test system: NCI-H2342
Summary of the method: as §1

[4] = test system: SW 900
Summary of the method: as §1

[5] = test system: NCI-H1623
Summary of the method: as §1

[6] = test system: NCI-H1703
Summary of the method: as §1

[7] = test system: EBC-1
Summary of the method: as §1

[8] = test system: A549
Summary of the method: as §1

[9] = test system: NCI-H1299
Summary of the method: as §1

[10] = test system: IA-LM
Summary of the method: as §1

[11] = test system: Calu-6
Summary of the method: as §1

**Q.** What does the source list for Cc1cnc(-c2cnc(NCCNc3ccc(C#N)cn3)nc2-c2ccc(Cl)cc2Cl)[nH]1 + CCNC(=O)c1noc(-c2cc(C(C)C)c(O)cc2O)c1-c1ccc(CN2CCOCC2)cc1 [Luminespib] (partner 0.01 µM)?
**A.** relative viability ([1]; first compound 0.08 µM): 0.473; relative viability ([1]; first compound 0.253 µM): 0.535; relative viability ([1]; first compound 0.8 µM): 0.499; relative viability ([1]; first compound 2.53 µM): 0.439; relative viability ([2]; first compound 0.08 µM): 1.14; relative viability ([2]; first compound 0.253 µM): 1.02; relative viability ([2]; first compound 0.8 µM): 0.99; relative viability ([2]; first compound 2.53 µM): 1.31; relative viability ([3]; first compound 0.08 µM): 0.825; relative viability ([3]; first compound 0.253 µM): 0.654; relative viability ([3]; first compound 0.8 µM): 0.694; relative viability ([3]; first compound 2.53 µM): 0.584; relative viability ([4]; first compound 0.08 µM): 0.196; relative viability ([4]; first compound 0.253 µM): 0.168; relative viability ([4]; first compound 0.8 µM): 0.206; relative viability ([4]; first compound 2.53 µM): 0.203; relative viability ([5]; first compound 0.08 µM): 0.594; relative viability ([5]; first compound 0.253 µM): 0.622; relative viability ([5]; first compound 0.8 µM): 0.542; relative viability ([5]; first compound 2.53 µM): 0.507

**Q.** Which relative viability ([6]; first compound 0.08 µM) does the source give for Cc1cnc(-c2cnc(NCCNc3ccc(C#N)cn3)nc2-c2ccc(Cl)cc2Cl)[nH]1 + COc1cc2c(Oc3ccc(NC(=O)C4(C(=O)Nc5ccc(F)cc5)CC4)cc3F)ccnc2cc1OCCCN1CCOCC1 [Foretinib] (partner 0.25 µM) here?
**A.** 0.333

**Q.** And the relative viability ([6]; first compound 0.253 µM)?
**A.** 0.383

**Q.** And the relative viability ([6]; first compound 0.8 µM)?
**A.** 0.362

**Q.** And the relative viability ([6]; first compound 2.53 µM)?
**A.** 0.433

**Q.** What about the relative viability ([7]; first compound 0.08 µM) of the same compound?
**A.** 0.0986

**Q.** What about the relative viability ([7]; first compound 0.253 µM) of the same compound?
**A.** 0.105

**Q.** And the relative viability ([7]; first compound 0.8 µM)?
**A.** 0.102

**Q.** And the relative viability ([7]; first compound 2.53 µM)?
**A.** 0.112

**Q.** And the relative viability ([1]; first compound 0.08 µM)?
**A.** 0.925

**Q.** What about the relative viability ([1]; first compound 0.253 µM) of the same compound?
**A.** 0.885

**Q.** And the relative viability ([1]; first compound 0.8 µM)?
**A.** 0.951

**Q.** What about the relative viability ([1]; first compound 2.53 µM) of the same compound?
**A.** 1.01

**Q.** What about the relative viability ([8]; first compound 0.08 µM) of the same compound?
**A.** 0.984

**Q.** What about the relative viability ([8]; first compound 0.253 µM) of the same compound?
**A.** 0.963

**Q.** And the relative viability ([8]; first compound 0.8 µM)?
**A.** 1.02

**Q.** And the relative viability ([8]; first compound 2.53 µM)?
**A.** 0.451

**Q.** And the relative viability ([9]; first compound 0.08 µM)?
**A.** 1.11

**Q.** What about the relative viability ([9]; first compound 0.253 µM) of the same compound?
**A.** 1.05

**Q.** And the relative viability ([9]; first compound 0.8 µM)?
**A.** 1.09

**Q.** And the relative viability ([9]; first compound 2.53 µM)?
**A.** 1.06

**Q.** What about the relative viability ([3]; first compound 0.08 µM) of the same compound?
**A.** 0.974

**Q.** What about the relative viability ([3]; first compound 0.253 µM) of the same compound?
**A.** 0.903

**Q.** What about the relative viability ([3]; first compound 0.8 µM) of the same compound?
**A.** 1.03

**Q.** What about the relative viability ([3]; first compound 2.53 µM) of the same compound?
**A.** 1.07

**Q.** What about the relative viability ([10]; first compound 0.08 µM) of the same compound?
**A.** 0.95

**Q.** What about the relative viability ([10]; first compound 0.253 µM) of the same compound?
**A.** 1.09

**Q.** What about the relative viability ([10]; first compound 0.8 µM) of the same compound?
**A.** 1.44

**Q.** What about the relative viability ([10]; first compound 2.53 µM) of the same compound?
**A.** 0.988

**Q.** And the relative viability ([4]; first compound 0.08 µM)?
**A.** 0.781

**Q.** And the relative viability ([4]; first compound 0.253 µM)?
**A.** 0.78

**Q.** What about the relative viability ([4]; first compound 0.8 µM) of the same compound?
**A.** 0.789

**Q.** And the relative viability ([4]; first compound 2.53 µM)?
**A.** 0.717

**Q.** What about the relative viability ([11]; first compound 0.08 µM) of the same compound?
**A.** 0.906

**Q.** What about the relative viability ([11]; first compound 0.253 µM) of the same compound?
**A.** 0.826

**Q.** And the relative viability ([11]; first compound 0.8 µM)?
**A.** 0.874

**Q.** What about the relative viability ([11]; first compound 2.53 µM) of the same compound?
**A.** 0.784

**Q.** And the relative viability ([5]; first compound 0.08 µM)?
**A.** 0.785

**Q.** What about the relative viability ([5]; first compound 0.253 µM) of the same compound?
**A.** 0.828

**Q.** What about the relative viability ([5]; first compound 0.8 µM) of the same compound?
**A.** 0.821

**Q.** What about the relative viability ([5]; first compound 2.53 µM) of the same compound?
**A.** 0.849

**Q.** With Cc1cnc(-c2cnc(NCCNc3ccc(C#N)cn3)nc2-c2ccc(Cl)cc2Cl)[nH]1 + Cc1nc(Nc2ncc(C(=O)Nc3c(C)cccc3Cl)s2)cc(N2CCN(CCO)CC2)n1 [Dasatinib] (partner 0.075 µM) as the compound, how does the relative viability ([1]; first compound 0.08 µM) read?
**A.** 0.439

**Q.** What about the relative viability ([1]; first compound 0.253 µM) of the same compound?
**A.** 0.471

**Q.** What about the relative viability ([1]; first compound 0.8 µM) of the same compound?
**A.** 0.51

**Q.** What about the relative viability ([1]; first compound 2.53 µM) of the same compound?
**A.** 0.429

**Q.** And the relative viability ([2]; first compound 0.08 µM)?
**A.** 0.845

**Q.** What about the relative viability ([2]; first compound 0.253 µM) of the same compound?
**A.** 0.996

**Q.** And the relative viability ([2]; first compound 0.8 µM)?
**A.** 0.737

**Q.** And the relative viability ([2]; first compound 2.53 µM)?
**A.** 0.844

**Q.** And the relative viability ([3]; first compound 0.08 µM)?
**A.** 0.325

**Q.** What about the relative viability ([3]; first compound 0.253 µM) of the same compound?
**A.** 0.321

**Q.** What about the relative viability ([3]; first compound 0.8 µM) of the same compound?
**A.** 0.301

**Q.** And the relative viability ([3]; first compound 2.53 µM)?
**A.** 0.278

**Q.** What about the relative viability ([4]; first compound 0.08 µM) of the same compound?
**A.** 0.64

**Q.** And the relative viability ([4]; first compound 0.253 µM)?
**A.** 0.425

**Q.** What about the relative viability ([4]; first compound 0.8 µM) of the same compound?
**A.** 0.343

**Q.** What about the relative viability ([4]; first compound 2.53 µM) of the same compound?
**A.** 0.404

**Q.** What about the relative viability ([5]; first compound 0.08 µM) of the same compound?
**A.** 0.5

**Q.** What about the relative viability ([5]; first compound 0.253 µM) of the same compound?
**A.** 0.536

**Q.** And the relative viability ([5]; first compound 0.8 µM)?
**A.** 0.472

**Q.** And the relative viability ([5]; first compound 2.53 µM)?
**A.** 0.516

**Q.** Which relative viability ([1]; first compound 0.08 µM) does the source give for Cc1cnc(-c2cnc(NCCNc3ccc(C#N)cn3)nc2-c2ccc(Cl)cc2Cl)[nH]1 + N=C(N)NC(=N)NCCc1ccccc1 [Phenformin] (partner 250 µM) here?
**A.** 0.649

**Q.** And the relative viability ([1]; first compound 0.253 µM)?
**A.** 0.647

**Q.** What about the relative viability ([1]; first compound 0.8 µM) of the same compound?
**A.** 0.636

**Q.** And the relative viability ([1]; first compound 2.53 µM)?
**A.** 0.635

**Q.** And the relative viability ([2]; first compound 0.08 µM)?
**A.** 0.639

**Q.** What about the relative viability ([2]; first compound 0.253 µM) of the same compound?
**A.** 0.707

**Q.** And the relative viability ([2]; first compound 0.8 µM)?
**A.** 0.65

**Q.** What about the relative viability ([2]; first compound 2.53 µM) of the same compound?
**A.** 0.666

**Q.** What about the relative viability ([8]; first compound 0.08 µM) of the same compound?
**A.** 0.168

**Q.** And the relative viability ([8]; first compound 0.253 µM)?
**A.** 0.154

**Q.** What about the relative viability ([8]; first compound 0.8 µM) of the same compound?
**A.** 0.151

**Q.** What about the relative viability ([8]; first compound 2.53 µM) of the same compound?
**A.** 0.154

**Q.** And the relative viability ([3]; first compound 0.08 µM)?
**A.** 0.622

**Q.** What about the relative viability ([3]; first compound 0.8 µM) of the same compound?
**A.** 0.635

**Q.** What about the relative viability ([3]; first compound 2.53 µM) of the same compound?
**A.** 0.577

**Q.** And the relative viability ([4]; first compound 0.08 µM)?
**A.** 0.771

**Q.** And the relative viability ([4]; first compound 0.253 µM)?
**A.** 0.588

**Q.** And the relative viability ([4]; first compound 0.8 µM)?
**A.** 0.644

**Q.** And the relative viability ([4]; first compound 2.53 µM)?
**A.** 0.391

**Q.** What about the relative viability ([5]; first compound 0.08 µM) of the same compound?
**A.** 0.527

**Q.** What about the relative viability ([5]; first compound 0.253 µM) of the same compound?
**A.** 0.503

**Q.** What about the relative viability ([5]; first compound 0.8 µM) of the same compound?
**A.** 0.581

**Q.** And the relative viability ([5]; first compound 2.53 µM)?
**A.** 0.589

Reference: the supplement of paper PMC10307832
